Like-named read-outs stand apart in the source and are kept apart here.

From US20260199323A1, “LIGAND COMPOUNDS FOR E3 UBIQUITIN LIGASE, PROTEIN DEGRADERS DEVELOPED ON BASIS OF LIGAND COMPOUNDS, AND USES THEREOF” (GLUETACS THERAPEUTICS (SHANGHAI) CO., LTD., priority 2021, published 2026) come the findings set out here.

One assay concerns MDA-MB-231. In words: CCK-8 tumor cell proliferation, MDA-MB-231. It counts as cell-based, Human. Details: IC50 for inhibiting the proliferation of tumor cells, MDA-MB-231: scale not given here. The settings on record: for IC50: Homo sapiens, MDA-MB-231, read-out: IC50 inhibiting proliferation of tumor cells, MDA-MB-231. The protocol: (§1) The tumor cells used herein were cultured in a cell culture medium listed in table 4 at 37° C. in an incubator with 5% CO2. Prior to experimentation, all cells used were correctly identified by STR profiling, and tested negative for mycoplasma through routine screenings.
(§2) IC50 values of the compounds of the present disclosure (including the compounds in Tables 1 and 3, and compounds of examples) were measured using the Meilun Cell Counting Kit-8 kit from Dalian Meilun Biotech Co., Ltd. Assay details are as follows: tumor cells were seeded in a 96-well plate at a density listed in Table 5. After 24 h, 100 μL of the inoculated cells were treated with 0.5 μL of the compounds of the present disclosure (including the compounds in Tables 1 and 3, and compounds of examples) at 10 different successively decreasing concentrations (starting at the highest concentration of 10 μM; 5-fold serial dilutions). After the cells were treated with the compounds of the present disclosure for a period of time, the cell viability detection reagent was added to the culture medium for cell viability assessment according to the instructions provided with the CCK-8 kit. […] The growth inhibition of the compounds of the present disclosure on cells was plotted by Prism Graphpad software, and the IC50 values of the compounds of the present disclosure were calculated therefrom.

In another assay the test system is CAL-62. In words: CCK-8 tumor cell proliferation, CAL-62. The settings on record: Homo sapiens; Table 18, FAK inhibitor based; CAL-62; read-out: IC50 inhibiting proliferation of tumor cells, CAL-62. It counts as cell-based, Human. The protocol: as §1, §2
The test system of another assay is SW620. Description: CCK-8 tumor cell proliferation, SW620. Type of assay: cell-based, Human. The settings on record: Homo sapiens, SW-620; Table 18, FAK inhibitor based; SW620; read-out: IC50 inhibiting proliferation of tumor cells, SW620. Here is the method: as §1, §2
For another assay, the system named is PC-9. Description: CCK-8 tumor cell proliferation, PC-9. As to conditions: Homo sapiens, PC-9, read-out: IC50 inhibiting proliferation of tumor cells, PC-9. Type of assay: cell-based, Human. The protocol: The tumor cells used herein were cultured in a cell culture medium listed in table 4 at 37° C. in an incubator with 5% CO2.
as §2, with “After” for “IC50 values of the compounds of the present disclosure (including the compounds in Tables 1 and 3, and compounds of examples) were measured using the Meilun Cell Counting Kit-8 kit from Dalian Meilun Biotech Co., Ltd. Assay details are as follows: tumor cells were seeded in a 96-well plate at a density listed in Table 5. After”

The next assay has as its system SR. Description: CCK-8 tumor cell proliferation, SR. It counts as cell-based, Human. The settings on record: for IC50: Homo sapiens, SR, read-out: IC50 inhibiting proliferation of tumor cells, SR. The protocol:
as §1, §2

In a further assay the test system is Mino. Description: CCK-8 tumor cell proliferation, Mino. As to conditions: for IC50: Homo sapiens, Table 18, FAK inhibitor based, Mino, read-out: IC50 inhibiting proliferation of tumor cells, Mino. It counts as cell-based, Human. The protocol: as §1, §2
The next assay concerns MM.1S. In words: CCK-8 tumor cell proliferation, MM.1S. The settings on record: for IC50 for inhibiting the proliferation of tumor cells, MM.1S: 72 h; for IC50: Homo sapiens, MM1.S, Table 18, FAK inhibitor based, MM.1S, read-out: IC50 inhibiting proliferation of tumor cells, MM.1S. Type of assay: cell-based. The protocol: as §1, §2
The next assay relates to CCRF-CEM. Description: CCK-8 tumor cell proliferation, CCRF-CEM. It counts as cell-based, Human. Details: IC50 for inhibiting the proliferation of tumor cells, CCRF-CEM: scale not given here. The settings on record: for IC50: Homo sapiens, Table 18, FAK inhibitor based, CCRF-CEM, read-out: IC50 inhibiting proliferation of tumor cells, CCRF-CEM; for IC50 for inhibiting the proliferation of tumor cells, CCRF-CEM: Table 7, designed based on BTK inhibitors, 96 h. Here is the method: as §1, §2

Setting [1] is: Table 7, designed based on BTK inhibitors.

On to `CN(c1nccnc1CNc1nc(Nc2ccc(N3CCN(Cc4ccc5c(c4)CN(C4CCC(=O)NC4=O)C5=O)CC3)cc2)ncc1C(F)(F)F)S(C)(=O)=O` (centres unmarked) [GT-03672, N-(3-(((2-((4-(4-((2-(2,6-dioxopiperidin-3-yl)-1-oxoisoindolin-5-yl)methyl)piperazin-1-yl)phenyl)amino)-5-(trifluoromethyl)pyrimidin-4-yl)amino)methyl)pyrazin-2-yl)-N-methylmethanesulfonamide], for which the IC50 in the assay on MDA-MB-231 (Table 18, FAK inhibitor based) lay in the range of 500 to 1000 nM; in the assay with CAL-62, 500 to 1000 nM; in the assay on SW620, 1000 to 5000 nM; in the assay with PC-9 (Table 18, FAK inhibitor based), 1000 to 5000 nM; in the assay with SR (Table 18, FAK inhibitor based) it was 500 to 1000 nM; in the assay on Mino it was 500 to 1000 nM.
For the compound `CC(C)(C)c1cnc(CSc2cnc(NC(=O)C3CCN(Cc4ccc5c(c4)CN(C4CCC(=O)NC4=O)C5=O)CC3)s2)o1` (centres unmarked) [GT-03242, N-(5-(((5-(tert-butyl)oxazol-2-yl)methyl)thio)thiazol-2-yl)-1-((2-(2,6-dioxopiperidin-3-yl)-1-oxoisoindolin-5-yl)methyl)piperidine-4-carboxamide], the “IC50 for inhibiting the proliferation of tumor cells, MM.1S” value with MM.1S (Table 12, designed based on CDK9 inhibitors) is “A+”. In addition, the “IC50 for inhibiting the proliferation of tumor cells, SR” value in the assay on SR (Table 12, designed based on CDK9 inhibitors, 72 h) is on record as “A+”.
As for `CNC(=O)c1ccccc1Nc1cc(Nc2ccc(N3CCC(N(C)Cc4ccc5c(c4F)CN(C4CCC(=O)NC4=O)C5=O)CC3)cc2OC)ncc1C(F)(F)F` (centres unmarked) [GT-03728, 2-((2-((4-(4-(((2-(2,6-dioxopiperidin-3-yl)-4-fluoro-1-oxoisoindolin-5-yl)methyl)(methyl)amino)piperidin-1-yl)-2-methoxyphenyl)amino)-5-(trifluoromethyl)pyridin-4-yl)amino)-N-methylbenzamide], the IC50 in the assay on MDA-MB-231 (Table 18, FAK inhibitor based) was less than 50 nM; in the assay on CAL-62 it was 50 to 100 nM; in the assay on SW620 it was 100 to 500 nM; in the assay with PC-9 (Table 18, FAK inhibitor based) it was 1000 to 5000 nM; in the assay with SR (Table 18, FAK inhibitor based), less than 50 nM; with Mino, 1000 to 5000 nM.
For the compound `CS(=O)(=O)c1cccc(CNc2nc(Nc3ccc(N4CCN(Cc5ccc6c(c5F)CN(C5CCC(=O)NC5=O)C6=O)CC4)cc3)ncc2C(F)(F)F)c1` (centres unmarked) [GT-03817, 3-(4-fluoro-5-((4-(4-((4-((3-(methylsulfonyl)benzyl)amino)-5-(trifluoromethyl)pyrimidin-2-yl)amino)phenyl)piperazin-1-yl)methyl)-1-oxoisoindolin-2-yl)piperidine-2,6-dione], the IC50 in the assay on CCRF-CEM is less than 50 nM; with MDA-MB-231 (Table 18, FAK inhibitor based), less than 50 nM; in the assay with CAL-62 it was less than 50 nM; in the assay with MM.1S, less than 50 nM; in the assay with SW620, less than 50 nM; in the assay on Mino, 50 to 100 nM.
For the compound `CNC(=O)c1ccc(Nc2ncc(C(F)(F)F)c(NCc3nccnc3N(C)S(C)(=O)=O)n2)cc1` [Defactinib, reference compound], the IC50 in the assay with SW620 is 1000 to 5000 nM; in the assay on PC-9 (Table 18, FAK inhibitor based), 1000 to 5000 nM; in the assay on Mino, 500 to 1000 nM.
In the case of `NC(=O)c1ccc(C2CCN(Cc3ccc4c(c3)CN(C3CCC(=O)NC3=O)C4=O)CC2)nc1-c1ccc(Oc2ccccc2)cc1` (centres unmarked) [GT-03693, 6-(1-((2-(2,6-dioxopiperidin-3-yl)-1-oxoisoindolin-5-yl)methyl)piperidin-4-yl)-2-(4-phenoxyphenyl)nicotinamide], the “IC50 for inhibiting the proliferation of tumor cells, CCRF-CEM” value in the assay with CCRF-CEM is “A+”. Further, the “IC50 for inhibiting the proliferation of tumor cells, MM.1S” value in the assay with MM.1S (setting [1]) was “A+”. Besides, in the assay on Mino (Table 7, designed based on BTK inhibitors, 72 h), the “IC50 for inhibiting the proliferation of tumor cells, Mino” value is “A+”.
For `CN(c1cccc(CNc2nc(Nc3ccc(C4CCN(Cc5ccc6c(c5)CN(C5CCC(=O)NC5=O)C6=O)CC4)cc3)ncc2C(F)(F)F)c1)S(C)(=O)=O` (centres unmarked) [GT-03742, N-(3-(((2-((4-(1-((2-(2,6-dioxopiperidin-3-yl)-1-oxoisoindolin-5-yl)methyl)piperidin-4-yl)phenyl)amino)-5-(trifluoromethyl)pyrimidin-4-yl)amino)methyl)phenyl)-N-methylmethanesulfonamide], the IC50 with MDA-MB-231 (Table 18, FAK inhibitor based) lay within 1000 to 5000 nM; in the assay with CAL-62, 1000 to 5000 nM; in the assay with MM.1S it was 1000 to 5000 nM.
Turning to `CNC(=O)c1ccccc1Nc1cc(Nc2ccc(N3CCC(N(C)Cc4ccc5c(c4)C(=O)N(C4CCC(=O)NC4=O)C5=O)CC3)cc2OC)ncc1C(F)(F)F` (centres unmarked) [GT-03732, 2-((2-((4-(4-(((2-(2,6-dioxopiperidin-3-yl)-1,3-dioxoisoindolin-5-yl)methyl)(methyl)amino)piperidin-1-yl)-2-methoxyphenyl)amino)-5-(trifluoromethyl)pyridin-4-yl)amino)-N-methylbenzamide], the IC50 with SW620 lay in the range of 1000 to 5000 nM; in the assay on PC-9 (Table 18, FAK inhibitor based), 50 to 100 nM; in the assay with SR (Table 18, FAK inhibitor based), 100 to 500 nM.
Take `Cc1cc(Nc2ncc(Cl)c(Nc3ccccc3S(=O)(=O)C(C)C)n2)c(OC(C)C)cc1N1CCC(N2CCN(Cc3ccc4c(c3)CN(C3CCC(=O)NC3=O)C4=O)CC2)CC1` (centres unmarked) [GT-03531, 3-(5-((4-(1-(4-((5-chloro-4-((2-(isopropylsulfonyl)phenyl)amino)pyrimidin-2-yl)amino)-5-isopropoxy-2-methylphenyl)piperidin-4-yl)piperazin-1-yl)methyl)-1-oxoisoindolin-2-yl)piperidine-2,6-dione]: the IC50 is 100 to 500 nM with MDA-MB-231 (Table 15, ALK inhibitor based); 1000 to 5000 nM in the assay on PC-9 (Table 15, ALK inhibitor based); less than 50 nM in the assay with SR (Table 15, ALK inhibitor based).
As for `CNC(=O)c1ccccc1Nc1cc(Nc2ccc(N3CCN(Cc4ccc5c(c4F)CN(C4CCC(=O)NC4=O)C5=O)CC3)cc2OC)ncc1C(F)(F)F` (centres unmarked) [GT-03712, 2-((2-((4-(4-((2-(2,6-dioxopiperidin-3-yl)-4-fluoro-1-oxoisoindolin-5-yl)methyl)piperazin-1-yl)-2-methoxyphenyl)amino)-5-(trifluoromethyl)pyridin-4-yl)amino)-N-methylbenzamide], the IC50 is less than 50 nM in the assay on MDA-MB-231 (Table 18, FAK inhibitor based); less than 50 nM in the assay with SW620; 1000 to 5000 nM in the assay with PC-9 (Table 18, FAK inhibitor based); 100 to 500 nM with Mino.
Regarding `Nc1ncnc2c1c(-c1ccc(Oc3ccccc3)cc1)nn2C1CCN(Cc2cc3c(cc2F)C(=O)N(C2CCC(=O)NC2=O)C3)CC1` (centres unmarked) [GT-03605, 3-(5-((4-(4-amino-3-(4-phenoxyphenyl)-1H-pyrazolo[3,4-d]pyrimidin-1-yl)piperidin-1-yl)methyl)-6-fluoro-1-oxoisoindolin-2-yl)piperidine-2,6-dione], in the assay on CCRF-CEM, the “IC50 for inhibiting the proliferation of tumor cells, CCRF-CEM” value is reported as “A+”. Moreover, in the assay with MDA-MB-231 (Table 7, designed based on BTK inhibitors, 96 h), the “IC50 for inhibiting the proliferation of tumor cells, MDA-MB-231” value is on record as “A+”. The “IC50 for inhibiting the proliferation of tumor cells, MM.1S” value in the assay on MM.1S (setting [1]) is given as “A+”.
`CNC(=O)c1ccccc1Nc1cc(Nc2ccc(N3CCC(N(C)Cc4ccc5c(c4)CN(C4CCC(=O)NC4=O)C5=O)CC3)cc2OC)ncc1C(F)(F)F` (centres unmarked) [GT-03679, 2-((2-((4-(4-(((2-(2,6-dioxopiperidin-3-yl)-1-oxoisoindolin-5-yl)methyl)(methyl)amino)piperidin-1-yl)-2-methoxyphenyl)amino)-5-(trifluoromethyl)pyridin-4-yl)amino)-N-methylbenzamide]: the IC50 with CCRF-CEM was 500 to 1000 nM; in the assay with MDA-MB-231 (Table 18, FAK inhibitor based), less than 50 nM; in the assay on CAL-62, 50 to 100 nM; in the assay with MM.1S, 100 to 500 nM; in the assay on SW620, 100 to 500 nM.
